In series [1] the test system is Mus musculus. The experiment in a line: Toxicity in BALB/c mouse type 2 collagen antibody-induced arthritis model assessed as change in body weight at 50 mg/kg, ip qd for 14 days measured on day 20. The series is classed as organism-based. Details: dose 50 mg/kg, route intraperitoneal. The note with it: in vivo, 336 h.
The nature of series [2]: Plasma concentration in BALB/c mouse at 50 mg/kg, po after 3 hrs. The class given is ADME, organism-based. More on the design: dose 50 mg/kg, route oral.
Series [3] deals with Mus musculus. Put plainly: Antiarthritic activity in BALB/c mouse type 2 collagen antibody-induced arthritis model assessed as inhibition of disease burden at 50 mg/kg, ip qd for 14 days measured on day 20 relative to control. The class given is functional. The note with it: route intraperitoneal.
Series [4] can be described thus: Plasma concentration in BALB/c mouse at 400 mg/kg, po after 3 hrs. The series is classed as ADME, organism-based. More on the design: dose 400 mg/kg, route oral.
Series [5] relates to Mus musculus. The experiment in a line: Antiarthritic activity in BALB/c mouse type 2 collagen antibody-induced arthritis model assessed as physiological disease-modifying affect at 50 mg/kg, ip qd for 14 days measured on day 20 relative to control. The class given is functional, organism-based. Details: dose 50 mg/kg.
The nature of series [6]: Plasma concentration in BALB/c mouse at 200 mg/kg, po after 3 hrs. The series is classed as ADME, organism-based. More on the design: dose 200 mg/kg, route oral.
The subject of series [7] is Mus musculus. Put plainly: Antiinflammatory activity in BALB/c mouse assessed as reduction of LPS-induced TNFalpha production in serum at 5 mg/kg, po administered 1 hr before LPS challenge measured after 3 hrs by EIA relative to LPS treated control. The series is classed as functional. Details: scale not given: the % may be the effect or the level left.
The nature of series [8]: Plasma concentration in BALB/c mouse at 50 mg/kg, ip after 3 hrs. The class given is ADME, organism-based. More on the design: dose 50 mg/kg, route intraperitoneal.
The test system of series [9] is Mus musculus. The experiment in a line: Antiinflammatory activity in BALB/c mouse assessed as reduction of LPS-induced TNFalpha production in serum at 5 to 100 mg/kg, po administered 1 hr before LPS challenge measured after 3 hrs by EIA. The series is classed as functional. More on the design: scale not given: the % may be the effect or the level left. The settings on record: dose mg/kg 5-100.

The subject of series [10] is Mus musculus. The experiment in a line: Hepatotoxicity in BALB/c mouse assessed as increase in serum ALT level at 150 mg/kg, ip after 13 to 19 days. The class given is toxicity, organism-based. Details: dose 150 mg/kg, route intraperitoneal. The note with it: in vivo.
In series [11] the test system is Mus musculus. The experiment in a line: Antiarthritic activity in BALB/c mouse type 2 collagen antibody-induced arthritis model assessed as inhibition of disease burden at 150 mg/kg, ip qd for 14 days measured on day 20 relative to control. The class given is functional. The note with it: route intraperitoneal.
For series [12], the system named is Mus musculus. The experiment in a line: Antiarthritic activity in BALB/c mouse type 2 collagen antibody-induced arthritis model assessed as reduction of inflammation at 150 mg/kg, ip qd for 14 days measured on day 20 relative to control. The series is classed as functional, organism-based. Details: dose 150 mg/kg.
For series [13], the system named is Mus musculus. The experiment in a line: Antiarthritic activity in BALB/c mouse type 2 collagen antibody-induced arthritis model assessed as physiological disease-modifying affect at 150 mg/kg, ip qd for 14 days measured on day 20 relative to control. The class given is functional, organism-based. Details: dose 150 mg/kg.
Series [14] relates to Mus musculus. The experiment in a line: Antiarthritic activity in BALB/c mouse type 2 collagen antibody-induced arthritis model assessed as reduction of exostosis at 150 mg/kg, ip qd for 14 days measured on day 20 relative to control. The series is classed as functional, organism-based. More on the design: dose 150 mg/kg.
Series [15] deals with Mus musculus. Put plainly: Hepatotoxicity in BALB/c mouse assessed as increase in serum ALT level at 150 mg/kg, po after 6 hrs. The series is classed as toxicity, organism-based. Details: dose 150 mg/kg, route oral. The settings on record: in vivo.
Series [16] concerns Mus musculus. Put plainly: Antiarthritic activity in BALB/c mouse type 2 collagen antibody-induced arthritis model assessed as reduction of bone resorption at 150 mg/kg, ip qd for 14 days measured on day 20 relative to control. The series is classed as functional, organism-based. Details: dose 150 mg/kg.
In series [17] the test system is Mus musculus. Put plainly: Antiarthritic activity in BALB/c mouse type 2 collagen antibody-induced arthritis model assessed as reduction of cartilage damage at 150 mg/kg, ip qd for 14 days measured on day 20 relative to control. The series is classed as functional, organism-based. More on the design: dose 150 mg/kg.
Series [18] has as its system Mus musculus. Put plainly: Hepatotoxicity in BALB/c mouse assessed as increase in serum ALT level at 50 mg/kg, po after 6 hrs. The series is classed as toxicity, organism-based. Details: dose 50 mg/kg, route oral. The settings on record: in vivo.
Series [19] relates to Mus musculus. Put plainly: Antiarthritic activity in BALB/c mouse type 2 collagen antibody-induced arthritis model assessed as reduction of pannus formation at 150 mg/kg, ip qd for 14 days measured on day 20 relative to control. The class given is functional, organism-based. Details: dose 150 mg/kg.
Series [20] relates to Mus musculus. The experiment in a line: Hepatotoxicity in BALB/c mouse assessed as increase in serum ALT level at 50 mg/kg, ip after 13 to 19 days. The series is classed as toxicity, organism-based. Details: dose 50 mg/kg, route intraperitoneal. The settings on record: in vivo.
The test system of series [21] is Mus musculus. The experiment in a line: Toxicity in BALB/c mouse type 2 collagen antibody-induced arthritis model assessed as change in body weight at 150 mg/kg, ip qd for 14 days measured on day 20. The series is classed as organism-based. Details: dose 150 mg/kg, route intraperitoneal. The note with it: in vivo, 336 h.
Series [22] relates to Mus musculus. Put plainly: Antiarthritic activity in BALB/c mouse type 2 collagen antibody-induced arthritis model assessed as inhibition of disease burden at 3 mg/kg, po qd for 14 days measured on day 20 relative to control. The series is classed as functional.
For series [23], the system named is Mus musculus. Put plainly: Antiarthritic activity in BALB/c mouse type 2 collagen antibody-induced arthritis model assessed as physiological disease-modifying affect at 3 mg/kg, po qd for 14 days measured on day 20 relative to control. The series is classed as functional, organism-based. More on the design: dose 3 mg/kg.
Series [24] has as its system Mus musculus. The experiment in a line: Toxicity in BALB/c mouse type 2 collagen antibody-induced arthritis model assessed as change in body weight at 3 mg/kg, po qd for 14 days measured on day 20. The series is classed as organism-based. Details: dose 3 mg/kg, route oral. The note with it: in vivo, 336 h.

Calls of active or inactive are those of the source. The calls are words filed in the database; no cut-off is given here.

As usually defined, the inhibition in vivo is the change of the read-out against control, counted positive when it falls. In the case of `CCOC(=O)[C@]1(c2ccccc2)N=C(c2ccccc2)N(Cc2ccccc2)[C@@H]1c1ccccc1`, the values for the Activity entry in [1], in series [7] and in series [9] were “Non-toxic”, 50% and 50%, respectively. Also, the concentration at 3 h in series [2] amounted to 2 µM; in [4], 9 µM; in series [6] it was 4 µM; in series [8], 6 µM. Further, in [3], the inhibition in vivo at 50 mg/kg is 67%. For the same compound, the outcome in [5] was Active.
Take `CCOC(=O)C1(c2ccccc2)N=C(c2ccccc2)N(Cc2ccccc2)C1c1ccccc1` (racemic): the Activity result in [10], in series [15], in series [18], in series [20] and in [21] was “Non-toxic” throughout. For the same compound, the inhibition in vivo at 150 mg/kg in series [11] came out at 94%. The outcome in series [12], in series [13], in series [14], in series [16], in [17] and in series [19] was Active.
On to `C[C@@H]1C[C@H]2[C@@H]3CCC4=CC(=O)C=C[C@]4(C)[C@@]3(F)[C@@H](O)C[C@]2(C)[C@@]1(O)C(=O)CO` [DEXAMETHASONE], for which the inhibition in vivo at 3 mg/kg in series [22] stood at 102%. In series [23], the result was Active. In addition, in series [24], the Activity result was “Toxic”.

The record behind these values is ChEMBL document CHEMBL2157919, “Attenuation of collagen-induced arthritis by orally available imidazoline-based NF-κB inhibitors” (Bioorg Med Chem Lett, 2012).
